# Test results reported in patent US20240016769A1, “Method for preparing compound or biological drug enhancing CNPase activity for treating heart diseases” (ZHUHAI YUANZHI HEALTH TECH CO. LTD., priority 2020, published 2024).
# Test system: CNPase
# Assay: CNPase enzyme activity in Ang-II induced cardiac hypertrophy cells
# Type: cell-based
# Details: n = 3
# Excerpt: The enzyme activity of CNPase in hypertrophic myocardium was detected by the detection method of calf intestinal alkaline phosphatase activity.
smiles,measurement,setting,value
"C[C@@]12CC[C@@H]3[C@@](CC[C@H]4[C@@]3(C)CCC[C@@]4(C)C(=O)[O-])(CC1=O)C2.[Na+] [STVNa, sodium isosteviol]",CNPase activity,"STVNa + Ang II, cardiac hypertrophy induced by Ang-II, Control 1.000, Ang-II alone 0.2266",0.9629 ± 0.411
same,CNPase activity,"STVNa + Ang II, cardiac hypertrophy induced by Ang-II, Control 1.000, Ang-II alone 0.2266, listed as sodium isosteviol",enhances CNPase activity
same,CNPase activity,"STVNa alone, no Ang-II, Control 1.000",0.9326 ± 0.241
